Here are results for one compound from patent EP0144996A2, “Substituted spiro pyridine derivatives, pharmaceutical compositions containing them and processes for the preparation of such compounds and compositions” (SCHERING CORPORATION, priority 1983, dated 1985).

Structures are written as SMILES.

Test [1] relates to allergen-induced histamine release. Nature of the test: Allergen-induced histamine release from sensitized human tissue. It is filed as cell-based.
For test [2] the test system is unchanged. Nature of the test: Allergen-induced histamine release from sensitized guinea pig tissue. Format: cell-based.
For test [3], the system named is anaphylactic bronchospasm. Nature of the test: Inhibition of anaphylactic bronchospasm in sensitized guinea pigs with antigen-induced bronchoconstriction. Format: in vivo. The note with it: oral dose of 5 mg/kg. As to the method:
The anti-allergy method of this invention is identified by tests which measure a compound's inhibition of anaphylactic bronchospasm in sensitized guinea pigs having antigen-induced bronchoconstriction. […] The compounds are effective non-adrenergic, non-anticholinergic antianaphylactic agents. When administered orally they are active at doses from about 0.1 to 50 mg/kg of body weight; when administered parenterally, e.g., intravenously, the compounds are active at dosages of from about 0.01 to 5 mg/kg body weight; when administered by inhalation (aerosol or nebulizer) the compounds are active at dosages of about 0.1 to 5 mg per puff, and one to four puffs may be taken every 4 hours.

On to `O=C1c2cccnc2N(c2ccccc2)C(=O)C12CCCCO2` (stereo not drawn) [1-phenyl-3',4',5',6'-tetrahydro-spiro[1,8-naphthyridine-3,2'-(2H)pyran]-2,4-dione], for which the “inhibition of allergen-induced histamine release” value in test [1] and in test [2] was “inhibit allergen-induced histamine release” throughout. For the same compound, the “inhibition of anaphylactic bronchospasms” value in test [3] is given as “inhibit anaphylactic bronchospasms”.
